This is an account of results in patent US20070253980A1, “New pharmaceutical composition from natural materials for regulating immunity, its preparation method and use” (priority 2006, published 2007).

Some results are limits rather than exact numbers.

The subject of data set [1] is C8166 cells. The experiment in a line: Cytotoxic effect on C8166 cells (MTT). The format is cell-based. As to conditions: three days, one value per date of experiment.
In data set [2] the test system is C8166 cells. The experiment in a line: Protective experiment: survival rate of normal cells (MTT). The format is cell-based. As to conditions: normal C8166 cells in protective experiment, three days.
Experimental: 50 µl medium was added into half of the holes on the culture plate and 50 µl diluted supernatant fluid of HIV-1, in which the value of M.O.I was 0.0089, was added into the other half of the holes on the culture plate. At the same time, the blank control holes without the drug (the negative control) were set and the control culture holes with positive drug AZT (the positive control) were set too. They were put into 5% CO2 incubator under 37 °C for three days. The survival rate of cells was determined by MTT method. […] The following formulae were used to calculate the survival rate of normal cells caused by the drug and the protective rate of the drug for HIV-1-infected cells. Survival rate of normal cells(%)=OD value of the experimental hole/OD value of negative control hole□100% Protective rate of infected cells(%)=(OD value of the experimental hole−OD value of positive control hole)/(OD value of negative control hole−OD value of positive control hole)□100%

Regarding `Cc1cn([C@H]2C[C@H](N=[N+]=[N-])[C@@H](CO)O2)c(=O)[nH]c1=O` [AZT], the TC50 with C8166 cells [1] and in the data set with C8166 cells [2] was over 50 µg/mL throughout.
